Entries after “also recorded” stand apart in the source; their conditions may differ.
How the values were obtained:
SLAMF7-K562 = assay: IFN-gamma ELISA, CAR T cells cultured overnight with SLAMF7-K562 target cells; assay type: cell-based, human
Excerpt: (§1) MM.1S is a SLAMF7^+ multiple myeloma cell line that was obtained from American Type Culture Collection (ATCC). A549 is a BCMA-negative lung cancer cell line (ATCC). TC71 is a BCMA-negative sarcoma cell line. CCRF-CEM, 293T, and A549 are SLAMF7-negative cell lines (ATCC). COL0207, HepG2, U251, Panc10.05, and TC71 are […] that were kind gifts from Dr. Steven Rosenberg, National Cancer Institute. SLAMF7-K562 are K562 cells (ATCC) which were transduced with the gene for full-length SLAMF7. SLAMF7-RPMI are RPMI8226 cells (ATCC) which were transduced with the gene for full-length SLAMF7. NGFR-K562 are K562 cells which were transduced with the gene for low-affinity nerve growth factor (Kochenderfer et al., J. Immunother., 32(7): 689-702 (2009)). All of the human samples mentioned were obtained from patients enrolled in IRB-approved clinical trials at the National Cancer Institute.
(§2) One-hundred thousand SLAMF7^+ or SLAMF7-negative target cells were combined with 100,000 CAR-transduced T cells in duplicate wells of a 96 well round bottom plate in 200 µL of AIM V™ medium (Invitrogen) plus 5% human serum. The plates were incubated at 37° C. for 18-20 hours. Following the incubation, ELISAs (enzyme-linked immunosorbent assays) for IFNγ were performed by using standard methods.
The T cells columns indicate whether T cells were transduced with Luc90-CD828Z, Luc63-CD828Z, or were untransduced. The % CAR^+ in Table B-1 was determined by staining the T cells with Protein L. Except for the % CAR^+ column, all values are pg/mL of IFN-gamma. T cells that were either untransduced or transduced with one of the indicated CARs were cultured with target cells overnight and a standard IFN-gamma ELISA was performed on the culture supernatant.
(§3) All values are pg/mL of IFN-gamma. T cells that were either untransduced or transduced with one of the indicated CARs were cultured with target cells overnight, and a standard IFN-gamma ELISA was performed on the culture supernatant.

CCRF-CEM = assay: IFN-gamma ELISA, CAR T cells with CCRF-CEM target cells; assay type: cell-based, human
Excerpt: as §1, §2, §3

SLAMF7-K562 target cells = assay: CFSE proliferation assay; assay type: cell-based, human; conditions: SLAMF7-K562 versus NGFR-K562 target cells, 4 days (FIGS. 8B, 8C)
Excerpt: Cocultures were set up in 24-well plates. Target cells included in cocultures were either 0.5×10^6 irradiated SLAMF7-K562 cells or 0.5×10^6 irradiated NGFR-K562 cells. The cocultures also included 1×10^6 T cells from cultures that had been transduced with either […]. The T cells were labeled with carboxy fluorescein diacetate succinimidyl ester (CFSE, Invitrogen) as previously described. The medium used in the cocultures was AIM V™ (Invitrogen) plus 5% human AB serum. IL-2 was not added to the medium. Four days after initiation, the live cells in each coculture were counted with trypan blue for dead cell exclusion, and flow cytometry was performed by Protein L staining.

[1] = test system: MM.1S human SLAMF7^+ multiple myeloma solid tumors; assay: MM.1S solid tumor model in NSG mice, anti-tumor efficacy; assay type: in vivo; conditions: for anti-tumor activity: 2 million CAR^+ T cells per mouse, 5 mice per group (FIG. 17)
Description: First, MM.1S human SLAMF7^+ multiple myeloma cell line tumors were established in immunodeficient mice. In this model, the MM.1S cells formed a solid cutaneous mass. Measurable tumors were allowed to develop over 7 days, and then the mice were treated with a single intravenous infusion of MSGV1-IC9-Luc90-CD828Z-transduced human T cells. NSG mice (NOD.Cg-Prkdc^scid Il2rg^tm1Wjl/SzJ) from The Jackson Laboratory, Bar Harbor, Me., were used. Mice received intradermal injections of 4×10^6 MM.1S cells. The cells were suspended in a 1:1 mixture of MATRIGEL™ gelatinous protein mixture (BD Biosciences) and PBS (Phosphate-buffered saline) for injection. Tumors were allowed to grow for 7 days, and then each mouse received a single intravenous infusion of human T cells that were transduced with one of 3 CARs: IC9-Luc90-CD828Z (suicide gene+anti-SLAMF7 CAR), Luc90-CD828Z (anti-SLAMF7 CAR alone), or a negative-control anti-CD19 CAR Hu19-CD828Z. A 4th group was left untreated. All groups included 5 mice. After CAR T-cell infusion, the tumors were measured with calipers every 3 days. The longest length and the length perpendicular to the longest length and the tumor thickness were multiplied together to obtain the tumor volume in mm^3. When the longest length reached 15 mm, mice were sacrificed. Animal studies were approved by the National Cancer Institute Animal Care and Use Committee.
FIGS. 16A-16B show a dose-titration of IC9-Luc90-CD828Z-expressing T cells. In this experiment, immunocompromised NSG mice were injected intradermally with 4×10^6 MM.1S cells to form a solid mass. Mice were then treated with a single infusion of 0.5×10^6, 2×10^6, or 8×10^6, IC9-Luc90-CD828Z-expressing T cells. […] The tumor volume curves end when the first mouse of a group was sacrificed.
MM.'S tumors were established in NSG mice as described in Example 9. FIGS. 17A-17B show results in which mice bearing MM.1S tumors were treated with T cells expressing one of 3 different CARs: IC9-Luc90-CD828Z (suicide gene+anti-SLAMF7 CAR), Luc90-CD828Z (anti-SLAMF7 CAR alone), or a negative-control anti-CD19 CAR Hu19-CD828Z. A 4th group was left untreated in both experiments. All groups included 5 mice. The CARP T cell dose was 2 million CARP T cells per mouse. There were 5 mice in all groups.

[2] = dose of 2 million or more T cells per mouse

Row | Substance | IFN-gamma, target cells SLAMF7-K562 (SLAMF7-K562; Table B-1, overnight culture) [pg/mL] | IFN-gamma, target cells SLAMF7-K562 (SLAMF7-K562; Table B-2, overnight culture) [pg/mL] | IFN-gamma, target cells SLAMF7-K562 (SLAMF7-K562; Table C) [pg/mL] | IFN-gamma, target cells CCRF-CEM (CCRF-CEM; Table C) [pg/mL] | proliferation (CFSE dilution) (SLAMF7-K562 target cells) | anti-tumor activity [1] | IFN-gamma, SLAMF7-K562 (SLAMF7-K562; Table E, overnight culture) [pg/mL] | IFN-gamma, CCRF-CEM (CCRF-CEM; Table E) [pg/mL] | dose dependence of activity against established tumors ([1]; 0.5×10^6 to 8×10^6 T cells) | survival [1, 2] | tumor eradication [1, 2] | effect on tumors ([1]; single infusion of 0.5×10^6 CAR^+ T cells (FIG. 16)) | effect on tumors ([1]; single infusion of 2×10^6 CAR^+ T cells (FIG. 16)) | effect on tumors ([1]; single infusion of 8×10^6 CAR^+ T cells (FIG. 16))
1 | Luc90-CD828Z: anti-SLAMF7 CAR (SEQ ID NO: 27): murine Luc90 scFv, human CD8a hinge and TM, CD28 and CD3ζ domains; tested as transduced T cells | 16579 | 20055 | 15759 | 16 | proliferated specifically in response to SLAMF7^+ target cells | powerful anti-tumor activity | – | – | – | – | – | – | – | –
2 | IC9-Luc90-CD828Z: CAR plus suicide gene construct (SEQ ID NO: 31): IC9 suicide gene 5′ to the CAR, T2A, Luc90-CD828Z | – | – | – | – | proliferated specifically in response to SLAMF7^+ target cells; also recorded: proliferated more | powerful anti-tumor activity | 2225 | 33 | dose-dependent activity | mice survive long-term | tumors can be eradicated | only slightly slowed tumor growth relative to untreated mice but did not eliminate any tumors | eliminated all tumors | eliminated all tumors

From patent US11951131B2, “Anti-SLAMF7 chimeric antigen receptors” (The United States of America, as represented by the …, priority 2018, dated 2024)
